Test system: patients with inadequately managed, severe chronic low back pain with or without a neuropathic pain component
Test: Hospital Anxiety and Depression Scale (HADS) depression score; open-label phase IIIb trial, tapentadol prolonged release 50-250 mg bid for up to 12 weeks
Assay type: in vivo, human patients
Details: for HADS depression score, course: Baseline to Week 12
Protocol: As used herein, the “depression score” is a value determining the degree of the depression. The scale of depression scores covers the range from 0 to 21, wherein the degree of the depression is high in case of high values and low in case of low values. In a group of tested subjects, typically the mean or mediate values of depression scores are determined. The mean value is the sum of all depression scores divided by the number of subjects. The mediate value is the middle depression score in the set of determined scores. Preferably, the “depression score” is defined as in the experimental section.
A subgroup suffering from neuropathic pain due to lumbar radiculopathy was also investigated.
This was a multicenter, multinational, open-label, effectiveness phase IIIb trial to evaluate effectiveness and safety of tapentadol prolonged release treatment in patients with inadequately managed, severe chronic low back pain with or without a neuropathic pain component. Patients taking WHO Step II analgesics discontinued those analgesics before starting study medication; patients taking Step I analgesics and/or centrally acting co-analgesics continued on the same dose. […] All patients received tapentadol prolonged release (50-250 mg bid) for up to 12 weeks (5-week titration period and a 7-week maintenance period). Tapentadol immediate release (IR) 50 mg (twice a day, hours apart) was permitted (combined total daily dose of tapentadol prolonged release and tapentadol IR, 500 mg/day). The primary efficacy endpoint was the change from Baseline to Week 6 (when tapentadol prolonged release doses were stable) in average pain intensity on the 11-point NRS-3 using the last observation carried forward (LOCF) for imputing missing scores. The painDETECT questionnaire was used to evaluate the likelihood of a neuropathic pain component of low back pain; patients were classified as painDETECT “negative,” “unclear,” or “positive.” The population of patients classified as painDETECT negative was limited to approximately 30% of the total population.
In the painDETECT positive trial population the “diagnosis of lumbar radiculopathy” was evaluated which was defined per study protocol according following criteria: • typical dermatomal pain (radiating beyond the knee towards the foot, pain evoked by stretching within distribution of the ischiadic/femoral nerve) • signs of root dysfunction: • such as sensory impairment, motor symptoms from compression of lumbar nerve root (L4, L5, S1). • and/or absent or diminished quadriceps femoris or triceps surae reflexes. • and/or quantitative sensory testing (QST) deficit and pain distribution present in the same dermatomal area.
All subjects completed Short Form-36 (SF-36) and EuroQol-5 Dimension (EQ-5D) questionnaires and the Hospital Anxiety and Depression Scale (HADS). The Patient Global Impression of Change (PGIC) and Clinical global impression of change (CGIC) were also used as secondary endpoints. For both tests, patients completed the statement, “since I began trial treatment, I would rate my overall condition as,” using 7 possible responses (“very much worse” to “very much improved”). Adverse events were recorded throughout the trial.
In the following • (i) N is the number of subjects of the specified diagnosis group, • (ii) n is the number of subjects with data available, • (iii) “Mean” is the mean score of the subjects, i.e. the sum of all scores is divided by the number of subjects, • (iv) SD is the standard deviation, • (v) “Median” is the median score of the subjects, i.e. the middle score in the set of scores, • (vi) “Range” is the range of scores of the subjects, i.e. the range defined by the lowest and the highest score of the set of scores. First, the depression scores are presented. The total number of subjects in the clinical study: N=175

[1] = Visit 1, defined neuropathic pain N=85
[2] = Visit 1, positive diagnosis of lumbar radiculopathy-neuropathic pain subset N=44
[3] = Visit 1, presumed neuropathic pain component N=41
[4] = Visit 1, presumed or defined neuropathic pain component N=126
[5] = Visit 1, subjects with nociceptive pain N=49
[6] = Visit 5, defined neuropathic pain N=85
[7] = Visit 5, positive diagnosis of lumbar radiculopathy-neuropathic pain subset N=44
[8] = Visit 5, presumed neuropathic pain component N=41
[9] = Visit 5, presumed or defined neuropathic pain component N=126
[10] = Visit 5, subjects with nociceptive pain N=49
[11] = Visit 6, defined neuropathic pain N=85
[12] = Visit 6, positive diagnosis of lumbar radiculopathy-neuropathic pain subset N=44
[13] = Visit 6, presumed neuropathic pain component N=41
[14] = Visit 6, presumed or defined neuropathic
[15] = Visit 6, presumed or defined neuropathic pain component N=126
[16] = Visit 6, subjects with nociceptive pain N=49
[17] = Visit 7, defined neuropathic pain N=85
[18] = Visit 7, positive diagnosis of lumbar radiculopathy-neuropathic pain subset N=44
[19] = Visit 7, presumed neuropathic pain component N=41
[20] = Visit 7, presumed or defined neuropathic pain component N=126
[21] = Visit 7, subjects with nociceptive pain N=49
[22] = Visit 8, defined neuropathic pain N=85

CC[C@@H](c1cccc(O)c1)[C@@H](C)CN(C)C [tapentadol, (−)-(1R,2R)-3-(3-dimethylamino-1-ethyl-2-methyl-propyl)-phenol]
HADS depression score, course (painDETECT negative): not significantly | HADS depression score, course (painDETECT unclear/positive, P<0.0001 at Visit 12): improved steadily | HADS depression score, course (positive diagnosis of lumbar radiculopathy-neuropathic pain subset, 0.0023 at Visit 12): improved steadily | Depression score Mean (SD) [1]: 8.3 (4.51) | Depression score Median [1]: 8.0 | Depression score Mean (SD) [2]: 7.5 (3.69) | Depression score Median [2]: 7.5 | Depression score Mean (SD) [3]: 8.8 (4.59) | Depression score Median [3]: 8.5 | Depression score Mean (SD) [4]: 8.5 (4.52) | Depression score Median [4]: 8.0 | Depression score Mean (SD) [5]: 6.1 (3.90) | Depression score Median [5]: 5.0 | Depression score Mean (SD) (Visit 1, total subjects N=175): 7.8 (4.47) | Depression score Median (Visit 1, total subjects N=175): 7.0 | Depression score Mean (SD) [6]: 7.3 (4.29) | Depression score Median [6]: 7.0 | Depression score Mean (SD) [7]: 6.7 (3.77) | Depression score Median [7]: 6.0 | Depression score Mean (SD) [8]: 7.5 (4.59) | Depression score Median [8]: 7.0 | Depression score Mean (SD) [9]: 7.4 (4.37) | Depression score Median [9]: 7.0 | Depression score Mean (SD) [10]: 5.6 (3.68) | Depression score Median [10]: 5.0 | Depression score Mean (SD) (Visit 5, total subjects N=175): 6.9 (4.26) | Depression score Median (Visit 5, total subjects N=175): 6.0 | Depression score change from baseline Mean (SD) (Visit 6): −0.4 (3.55) | Depression score change from baseline Median (Visit 6): −0.0 | Depression score change from baseline Mean (SD) (Visit 6, defined neuropathic): −1.7 (3.43) | Depression score change from baseline Median (Visit 6, defined neuropathic): −2.0 | Depression score Mean (SD) [11]: 6.8 (4.41) | Depression score Median [11]: 6.0 | Depression score change from baseline Mean (SD) (Visit 6, lumbar radiculopathy): −1.7 (3.23) | Depression score change from baseline Median (Visit 6, lumbar radiculopathy): −1.0 | Depression score change from baseline Mean (SD) (Visit 6, nociceptive): −1.0 (3.15) | Depression score change from baseline Median (Visit 6, nociceptive): −1.0 | Depression score Mean (SD) [12]: 6.3 (3.67) | Depression score Median [12]: 6.0 | Depression score Mean (SD) [13]: 7.5 (4.60) | Depression score Median [13]: 7.5 | Depression score change from baseline Mean (SD) [14]: −1.3 (3.50) | Depression score change from baseline Median [14]: −1.0 | Depression score Mean (SD) [15]: 7.1 (4.46) | Depression score Median [15]: 7.0 | Depression score Mean (SD) [16]: 5.3 (4.03) | Depression score Median [16]: 4.0 | Depression score change from baseline Mean (SD) (Visit 6, total): −1.2 (3.40) | Depression score change from baseline Median (Visit 6, total): −1.0 | Depression score Mean (SD) (Visit 6, total subjects N=175): 6.6 (4.41) | Depression score Median (Visit 6, total subjects N=175): 6.0 | Depression score Mean (SD) [17]: 6.2 (4.56) | Depression score Median [17]: 6.0 | Depression score Mean (SD) [18]: 5.4 (3.85) | Depression score Median [18]: 5.0 | Depression score Mean (SD) [19]: 7.0 (4.71) | Depression score Median [19]: 6.5 | Depression score Mean (SD) [20]: 6.5 (4.61) | Depression score Median [20]: 6.0 | Depression score Mean (SD) [21]: 5.0 (3.63) | Depression score Median [21]: 4.0 | Depression score Mean (SD) (Visit 7, total subjects N=175): 6.1 (4.40) | Depression score Median (Visit 7, total subjects N=175): 6.0 | Depression score change from baseline Mean (SD) (Visit 8): −1.0 (3.13) | Depression score change from baseline Median (Visit 8): −1.0 | Depression score change from baseline Mean (SD) (Visit 8, defined neuropathic): −2.3 (3.33) | Depression score change from baseline Median (Visit 8, defined neuropathic): −1.5 | Depression score Mean (SD) [22]: 6.4 (4.28) | Depression score Median [22]: 6.0 | Depression score change from baseline Mean (SD) (Visit 8, lumbar radiculopathy): −2.1 (3.54) | Depression score change from baseline Median (Visit 8, lumbar radiculopathy): −1.0 | Depression score change from baseline Mean (SD) (Visit 8, nociceptive): −0.8 (2.31) | Depression score change from baseline Median (Visit 8, nociceptive): −1.0 | Depression score Mean (SD) (Visit 8, positive diagnosis of lumbar radiculopathy-neuropathic pain subset N=44): 5.8 (3.71)

From patent publication US9980927B2, “Use of tapentadol for inhibiting and/or treating depression and anxiety” (Gruenenthal GmbH, priority 2011, dated 2018)
